Tests used:
[1] = target: T1, LBT-PglBCl-Δ1-12 (Campylobacter lari, UniProt B9KDD4); format: binding; conditions: Tb^3+ relative to LBT-PglB
[2] = target: LBT-PglBCj-Δ1-11 (Campylobacter jejuni subsp. jejuni serotype O:2, UniProt Q0P9C8); format: binding
[3] = tested on: PglBCj; format: biochemical, Campylobacter jejuni
[4] = target: T1, LBT-PglBCl-Δ1-12; format: binding; conditions: read-out: KD (glycan substrate); LRET titration, UndPPT-Fl from 0.014 to 5 μM, luminescence at 544 nm

Compound	Tb^3+ saturation stoichiometry [1]	Tb^3+ saturation stoichiometry ([2]; Tb^3+ relative to LBT-PglB)	Kd ([2]; read-out: Tb^3+ KD, estimated, sensitized luminescence at 544 nm) [nM]	tolerated as glycosyl donor substrate [3]	Kd [4] [nM]
[Tb+3] [Tb^3+, terbium]	saturated at one molar equivalent	saturated at one molar equivalent	2300	–	–
Und-PP-diNAcBac-GalNAc-GalNAz conjugated to acetylene-545 fluorophore [UndPPT-Fl]	–	–	–	tolerates	330 ± 70

Reference: publication PMC5480290 (Journal of the American Chemical Society, 2016)
